{"source": "patent US6368788B1", "about": "(priority 1987, dated 2002)", "key": {"[1]": {"assay": "Ophthalmic diseases, parabulbar or conjunctival instillation", "type": "in vivo, human", "experimental": "Forty one patients (41; 17 men and 24 women; ranging in age from 17 to 68 years) with various eye diseases of infectious and non-infectious origin were treated with L-Glu-L-Trp. Patients having the following infectious, and non-infectious, ophthalmic diseases were entered into the trial: a) nonviral conjunctivitis, keratitis, chronic uveitis, persistent sties, and, focal chorioretinitis; and, b) retinal pigment dystrophy, Grenblad-Stranberg syndrome, and maculophathy, respectively. Five patients were Class II invalids due to vision impairment, 4 were Class III, and 32 were impaired but not invalid. […] L-Glu-L-Trp was administered daily in a single 0.1 mL (10 μg) dose by the parabulbar route (Group 1; n=21), or alternatively one drop of the dipeptide solution (5 μg) was delivered into the conjunctival cavity twice daily on each of 5 consecutive days (Group 2; n=20). Thirty six patients undergoing conventional therapy served as a control group (Group 3; n=36).\nClinical diagnoses of patients entered into Group 1 were as follows: 4 subjects had diagnosed adenoviral conjunctivitis; 2 subjects, recurring eyelid sties; 3 subjects, chronic serous-plastic uveitis; 3 subjects, central chorioretinitis; 5 subjects, central retinal dystrophy in both eyes; 4 subjects, pigment degeneration of the retina.\nClinical diagnoses of patients entered into Group 2 were as follows: namely, 7 subjects had diagnosed chronic serous-plastic uveitis, and 13 subjects adenoviral conjunctivitis.\nVision was assessed using standard measurements: i.e., field of vision, visual acuity, electrophysiological indices. Ophthalmascopic examination was used to evaluate and score corneal epithelial integrity, extent of edema and infiltration of the cornea (all strata), uveitis, retinal inflammation (edema, focal and peripheral changes, exudation, hemorrhage, plasmohemorrhagia), and expansion in the vitreous body. Immune parameters in peripheral blood were also assessed. Following treatment, the trial subjects were followed for not less than 12 months."}, "Mycobacterium leprae": {"tested_on": "Mycobacterium leprae", "type": "in vivo, human"}, "Allogeneic skin grafts": {"assay": "Allogeneic skin grafts", "parameters": "species or system human", "conditions": "in vivo", "experimental": "L-Glu-L-Trp was administered to 17 patients receiving allogeneic skin grafts. 27 patients receiving similar grafts and conventional care served as the control group. L-Glu-L-Trp was administered im as a single daily injection of 50-100 μg on each of 5 consecutive days, or alternatively, intranasally at a dose of 1 μg/kg daily for 5 days. Graft rejection was manifest in 8 of the control patients."}, "[2]": {"assay": "Complications of pregnancy: toxemia (Protocol B)", "parameters": "species or system human", "conditions": "in vivo", "experimental": "L-Glu-L-Trp was administered im at 100 μg daily, or 1 μg/kg intranasally, for 5-10 days."}, "Herpes vulgaris": {"tested_on": "Herpes vulgaris", "conditions": "in combination with interferon; 7-10 outbreaks per year before"}, "E-RFC": {"tested_on": "E-RFC", "assay": "In vitro sheep red blood cell rosette forming response of gastritis patients' T-lymphocytes", "type": "cell-based, human", "conditions": "22 patients", "excerpt": "Twenty two patients (all men aged 18-30 years) suffering from chronic primary gastritis and gastro-duodenitis were entered into the trial. Diagnosis was based on physical examination, and clinical and laboratory investigations including roentgenoscopy and endoscopic examination of the stomach and duodenum. Patient entry criteria was further conditioned on the results of laboratory tests for i) pre-treatment immune indices (i.e., numbers of lymphocytes, T-, and B-lymphocytes, etc.; TABLE 46) and ii) the in vitro sheep red blood cell rosette forming response of T-lymphocytes to L-Glu-L-Trp, (i.e., whether in vitro incubation of patient peripheral blood lymphocytes with L-Glu-L-Trp increased the percentage of E-RFC). […] These twelve patients were entered into the trial."}, "HIV": {"tested_on": "HIV", "assay": "HIV-infected individuals: comparative studies with TPI", "parameters": "species or system human", "conditions": "in vivo", "experimental": "In separate studies, a total of 21 HIV-infected individuals were studied, including full-blown syndrome, prodromal, and pre-AIDS afflicted individuals who were treated with Thympentin. Thympentin and TPI are thymic gland peptide extracts previously disclosed in the scientific literature."}, "[3]": {"assay": "Patients after radiation and chemotherapy, L-Glu-L-Trp 100 μg daily 10 days", "conditions": "human, in vivo", "experimental": "A total of 246 patients were eventually entered into studies after receiving radiation and chemotherapy. L-Glu-L-Trp was administered to the patients in single 100 μg daily dose for each of 10 days during the period of chemotherapy. A control group constituted 158 similar patients (following radiation and chemotherapy), and these patients were treated in a conventional manner (i.e., chemotherapy and support therapy). […] Immune parameters were periodically monitored over the next 4-6 months in the patients and decreased levels of lymphocytes or their subpopulations were used as clinical triggers for additional therapeutic intervention with L-Glu-L-Trp."}}, "note": "Values joined by “and” are separate entries in the source; they are usually repeats but may differ in a detail not shown here. Equal values may be shown once. “Also recorded” adds a separate entry of the source. Read-outs that look alike come from different tables or passages of the source.", "data": [{"substance": "L-Glu-L-Trp", "values": [{"measurement": "Patients with “good response”", "setting": "[1]; Group 1, parabulbar", "result": 9}, {"measurement": "Patients with “marked favorable response”", "setting": "[1]; Group 1, parabulbar", "result": 9}, {"measurement": "Patients with “good response”", "setting": "[1]; Group 2, instillation", "result": 2}, {"measurement": "Patients with “marked favorable response”", "setting": "[1]; Group 2, instillation", "result": 18}, {"measurement": "Laboratory effects", "setting": "[1]; in vivo", "result": "increase in the number of circulating peripheral blood B- and T-lymphocytes"}, {"measurement": "Patients with “poor response”", "setting": "[1]; in vivo", "result": 3}, {"measurement": "Subjects in whom treatment was found effective", "setting": "[1]; infectious eye diseases", "result": 66.7, "unit": "%"}, {"measurement": "Patients with marked positive response", "setting": "[1]; infectious eye diseases, parabulbar introduction", "result": 75, "unit": "%"}, {"measurement": "Patients with good response", "setting": "[1]; instillation", "result": 10, "unit": "%"}, {"measurement": "Patients with marked positive response", "setting": "[1]; instillation", "result": 90, "unit": "%"}, {"measurement": "Faster recovery than control group, adenoviral conjunctivitis", "setting": "[1]; marked responses", "result": "10 to 13", "unit": "days"}, {"measurement": "Rise in visual acuity, chronic serous-plastic uveitis", "setting": "[1]; marked responses", "result": "> 0.1"}, {"measurement": "Patients with good response", "setting": "[1]; parabulbar introduction", "result": 15, "unit": "%"}, {"measurement": "Mean % responsive PBL (blast cells), Con-A", "setting": "Mycobacterium leprae; 5-7 days", "result": "22.5 ± 4.0", "unit": "%"}, {"measurement": "Mean % responsive PBL (blast cells), PHA", "setting": "Mycobacterium leprae; 5-7 days", "result": "28.7 ± 3.8", "unit": "%"}, {"measurement": "Additional decrease in area of ulceration, primary NTU", "setting": "Mycobacterium leprae; in vivo", "result": "23.2% and 22%"}, {"measurement": "Blast cells responsive to synthetic leprosy antigen", "setting": "Mycobacterium leprae; in vivo", "result": "2.86±0.9", "unit": "%"}, {"measurement": "Clinical outcome", "setting": "Mycobacterium leprae; in vivo", "result": "resolution of dermal leprotic lesions"}, {"measurement": "Decrease in area of ulceration, primary NTU", "setting": "Mycobacterium leprae; in vivo", "result": 40, "unit": "%"}, {"measurement": "Decrease in area of ulceration, recurrent ulcers", "setting": "Mycobacterium leprae; in vivo", "result": 22.6, "unit": "%"}, {"measurement": "EI change versus Before (↓)", "setting": "Mycobacterium leprae; in vivo", "result": "(↓33%)"}, {"measurement": "Healing time, primary NTU", "setting": "Mycobacterium leprae; in vivo", "result": "3-6 weeks"}, {"measurement": "Healing time, secondary recurrent NTU", "setting": "Mycobacterium leprae; in vivo", "result": "4-6 weeks"}, {"measurement": "Increase of blast responsiveness of patient lymphocytes to Con-A", "setting": "Mycobacterium leprae; in vivo", "result": 1.6, "unit": "fold"}, {"measurement": "Increase of blast responsiveness of patient lymphocytes to PHA", "setting": "Mycobacterium leprae; in vivo", "result": 1.8, "unit": "fold"}, {"measurement": "Increase of lymphocytes responsive to synthetic leprosy antigen", "setting": "Mycobacterium leprae; in vivo", "result": "about 1.6 fold"}, {"measurement": "Lepromin skin test conversion", "setting": "Mycobacterium leprae; in vivo", "result": "four subjects with negative skin tests for lepromin at the beginning of therapy turned positive"}, {"measurement": "Mean % responsive PBL (blast cells), Con-A", "setting": "Mycobacterium leprae; in vivo", "result": "36.9 ± 1.28", "unit": "%"}, {"measurement": "Mean % responsive PBL (blast cells), PHA", "setting": "Mycobacterium leprae; in vivo", "result": "22.3 ± 1.43", "unit": "%"}, {"measurement": "OKT 4 (%)", "setting": "Mycobacterium leprae; in vivo", "result": "40.67 ± 1.44% and 43.25 ± 1.91%"}, {"measurement": "OKT 4/OKT 8", "setting": "Mycobacterium leprae; in vivo", "result": "1.61 ± 0.08 and 1.68 ± 0.32"}, {"measurement": "OKT 8 (%)", "setting": "Mycobacterium leprae; in vivo", "result": "25.56 ± 1.15% and 27.25 ± 3.42%"}, {"measurement": "OKT 11 (%)", "setting": "Mycobacterium leprae; in vivo", "result": "72.22 ± 1.52% and 76.25 ± 0.87%"}, {"measurement": "Rate of healing, primary NTU", "setting": "Mycobacterium leprae; in vivo", "result": 6.34, "unit": "mm^2/day"}, {"measurement": "Rate of healing, recurrent NTU", "setting": "Mycobacterium leprae; in vivo", "result": 5.91, "unit": "mm^2/day"}, {"measurement": "Romanovsky Staining", "setting": "Mycobacterium leprae; in vivo", "result": "regenerative: lst or 2nd phase; also recorded: regenerative: 2nd or 3rd. phase,; also recorded: regenerative: 3rd. phase/healing;; also recorded: degenerative cells &"}, {"measurement": "Clinical outcome", "setting": "Allogeneic skin grafts", "result": "prevented infectious complications and delayed graft rejection"}, {"measurement": "Clinical outcome", "setting": "[2]", "result": "normalized blood pressure"}, {"measurement": "Outbreaks after treatment", "setting": "Herpes vulgaris", "result": "less than one outbreak per year"}, {"measurement": "Patients with a positive in vitro response (increased E-RFC)", "setting": "E-RFC", "result": 55, "unit": "%"}, {"measurement": "Comparative effectiveness", "setting": "HIV", "result": "more effective than TPI in restoring normal immunologic indices, T-cell functional activity, and T4/T8 ratios"}, {"measurement": "Clinical outcome", "setting": "[3]", "result": "decreased incidence and severity of post-operative complications"}]}]}
